The structures appear in SMILES notation.

In series [1] the target is T1, beluga AHR (Delphinapterus leucas, UniProt Q95LD9).
T1 sequence (Q95LD9 11-845): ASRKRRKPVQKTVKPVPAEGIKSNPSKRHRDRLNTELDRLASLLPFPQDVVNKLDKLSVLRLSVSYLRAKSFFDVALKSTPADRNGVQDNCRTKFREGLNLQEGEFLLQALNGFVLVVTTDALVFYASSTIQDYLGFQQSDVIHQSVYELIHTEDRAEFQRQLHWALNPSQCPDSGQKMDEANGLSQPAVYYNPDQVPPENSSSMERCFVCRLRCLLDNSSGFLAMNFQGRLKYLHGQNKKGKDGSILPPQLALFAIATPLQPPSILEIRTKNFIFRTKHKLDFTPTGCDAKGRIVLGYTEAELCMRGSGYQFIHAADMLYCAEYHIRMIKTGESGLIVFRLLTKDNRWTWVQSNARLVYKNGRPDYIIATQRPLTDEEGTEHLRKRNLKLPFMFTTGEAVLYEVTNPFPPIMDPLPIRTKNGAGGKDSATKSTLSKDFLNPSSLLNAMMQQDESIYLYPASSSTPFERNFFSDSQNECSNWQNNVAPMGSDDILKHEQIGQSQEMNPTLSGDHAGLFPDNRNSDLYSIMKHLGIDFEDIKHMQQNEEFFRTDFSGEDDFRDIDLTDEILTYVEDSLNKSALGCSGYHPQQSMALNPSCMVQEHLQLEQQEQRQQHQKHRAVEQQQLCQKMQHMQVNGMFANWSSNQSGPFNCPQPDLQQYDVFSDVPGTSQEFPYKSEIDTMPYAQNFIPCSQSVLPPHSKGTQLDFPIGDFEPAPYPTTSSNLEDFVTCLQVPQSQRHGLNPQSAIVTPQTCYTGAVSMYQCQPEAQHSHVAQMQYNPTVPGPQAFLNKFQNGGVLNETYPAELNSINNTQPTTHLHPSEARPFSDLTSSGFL
The series is classed as binding.

For series [2], the system named is mouse AHR (Ah^b-1 allele). Type of series: binding. As to conditions: mouse REP vs rat REP.
The target in series [3] is T2, mouse AHR (Ah^b-1 allele) (Mus musculus, UniProt P30561).
T2 sequence (P30561 10-848): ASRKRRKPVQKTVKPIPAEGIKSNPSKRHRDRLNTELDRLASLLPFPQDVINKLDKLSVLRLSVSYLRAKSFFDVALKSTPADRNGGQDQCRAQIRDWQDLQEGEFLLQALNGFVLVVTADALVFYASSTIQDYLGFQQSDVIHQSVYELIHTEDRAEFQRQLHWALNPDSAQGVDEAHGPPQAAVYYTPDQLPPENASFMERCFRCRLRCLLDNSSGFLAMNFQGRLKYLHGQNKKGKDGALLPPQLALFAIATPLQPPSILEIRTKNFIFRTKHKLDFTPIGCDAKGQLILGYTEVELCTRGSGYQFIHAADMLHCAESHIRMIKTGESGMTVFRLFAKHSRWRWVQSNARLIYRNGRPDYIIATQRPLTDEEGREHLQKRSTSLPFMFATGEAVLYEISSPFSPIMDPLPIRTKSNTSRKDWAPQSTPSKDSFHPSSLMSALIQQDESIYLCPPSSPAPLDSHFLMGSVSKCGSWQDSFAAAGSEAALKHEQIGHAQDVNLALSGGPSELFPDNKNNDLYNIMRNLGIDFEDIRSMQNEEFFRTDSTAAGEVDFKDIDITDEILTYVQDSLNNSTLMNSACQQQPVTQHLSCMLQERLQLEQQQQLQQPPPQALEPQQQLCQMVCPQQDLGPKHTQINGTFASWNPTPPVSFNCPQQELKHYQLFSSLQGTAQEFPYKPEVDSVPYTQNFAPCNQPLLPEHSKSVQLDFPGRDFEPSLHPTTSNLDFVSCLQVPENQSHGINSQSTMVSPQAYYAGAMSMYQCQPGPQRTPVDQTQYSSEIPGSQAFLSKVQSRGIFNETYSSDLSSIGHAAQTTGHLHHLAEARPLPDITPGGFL
The series is classed as binding.

For series [4], the system named is beluga AHR. The following applies: determined by saturation binding; ref Jensen and Hahn 2001; cited from earlier work.

`Clc1ccc(-c2cc(Cl)c(Cl)c(Cl)c2)cc1` [PCB-81]: the “fold higher binding REP compared to rat” value at beluga AHR [1] (beluga REP vs rat REP) is 14 fold; in series [2] it was 28 fold.
`Clc1ccc(-c2cc(Cl)c(Cl)cc2Cl)cc1Cl` [PCB-118]: the “fold lower REP compared to rat” value came to 15 fold at beluga AHR [1] (beluga REP vs rat REP) and 10 fold in series [2].
On to `Clc1ccc(-c2ccc(Cl)c(Cl)c2Cl)c(Cl)c1Cl` [PCB-128], for which the “inhibition of [3H]TCDD binding reached by the curves” value is given as 90% at beluga AHR [1] (beluga AHR, maximum reached by competition curves) and 80% in series [3] (mouse AHR, maximum reached by competition curves).
In general, IC50 refers to the concentration needed to halve the response being measured. By Ki is commonly meant the equilibrium dissociation constant of an inhibitor or competing ligand from its target. The low end stands for higher affinity, the high end for lower affinity. As for `Clc1cc2c(cc1Cl)Oc1cc(Cl)c(Cl)cc1O2` [TCDD, 2,3,7,8-tetrachlorodibenzo-p-dioxin, reference compound], on beluga AHR [1], the IC50 turned out to be 470 pM and the Ki came to 100 pM. Moreover, the Ki in series [3] stood at 360 pM.
Consider `[3H]c1c(Cl)c(Cl)cc2c1Oc1cc(Cl)c(Cl)c([3H])c1O2` [[^3H]TCDD, 2,3,7,8-Tetrachloro[1,6-^3H]dibenzo-p-dioxin], for which the “binding affinity for beluga AHR vs mouse AHR, fold higher” value with beluga AHR [4] was ~ 2 fold.

Source of the values: PMC3175004 (Aquatic toxicology (Amsterdam, Netherlands), 2010).
